Data from patent US12428394B2, “2,4-disubstituted pyrimidine derivative, preparation method therefor and use thereof” (CHENGDU ZENITAR BIOMEDICAL TECHNOLOGY CO., LTD., priority 2019, dated 2025).

Key:
[1] = test system: MOLM-13 cells (FLT3-ITD-/+); assay: Inhibition of cell proliferation by MTT experiment, MOLM-13; type: cell-based, human; settings: Homo sapiens, MOLM-13; MTT, 72 h; read-out: IC50 value on cell proliferation inhibition, MOLM-13 FLT3-ITD-/+
Description: (§1) MV4-11, MOLM-13 and SET-2 were used to determine the influence of the test compound of the present invention on the activity of cancer cells. MV4-11 and MOLM-13 were human leukemia cell lines from American Type Culture Collection (ATCC), expressing FLT3 receptor and containing FLT3-ITD mutation; and SET-2 was a primary thrombocythemia cell purchased from Chengdu Bowerston Biotechnology Co., Ltd., China, continuously expressing JAK2 receptor and containing the mutation of V617F.
(§2) MV4-11, MOLM-13 and SET-2 cells were filled in a 96-well petri dish with 100 μL IMDM as the medium, containing 10% fetal bovine serum (100 mL/bottle, purchased from Grassland Lvye Bio-Engineering Materials Co., Ltd. and cryopreserved at −20° C.), and with 10,000-15,000 cells in each well. […] In each group, 3-5 replicate wells were set and incubated in 5% CO2 at 37° C. for 72 h. At the endpoint, 20 μL MTT (5 mg/mL) was added to each well, and the cells were incubated for another 1-3 h.
(§3) After the inhibition rate of each concentration of compound on cell proliferation activity was calculated, the dose-response curve and IC50 value were fitted by Graphpad prism software according to the compound treatment concentrations and corresponding inhibition rates.

FLT3 = target: T1, FLT3 (Homo sapiens, UniProt P36888); assay: In vitro kinase activity experiment, FLT3; type: biochemical; settings: 40 min; inhibition rate of enzyme at 500 nM; measured by Eurofins; read-out: Kinase activity @ 500 nM (%) FLT3
T1 construct: purchased Eurofins
T1 sequence (P36888 27-993): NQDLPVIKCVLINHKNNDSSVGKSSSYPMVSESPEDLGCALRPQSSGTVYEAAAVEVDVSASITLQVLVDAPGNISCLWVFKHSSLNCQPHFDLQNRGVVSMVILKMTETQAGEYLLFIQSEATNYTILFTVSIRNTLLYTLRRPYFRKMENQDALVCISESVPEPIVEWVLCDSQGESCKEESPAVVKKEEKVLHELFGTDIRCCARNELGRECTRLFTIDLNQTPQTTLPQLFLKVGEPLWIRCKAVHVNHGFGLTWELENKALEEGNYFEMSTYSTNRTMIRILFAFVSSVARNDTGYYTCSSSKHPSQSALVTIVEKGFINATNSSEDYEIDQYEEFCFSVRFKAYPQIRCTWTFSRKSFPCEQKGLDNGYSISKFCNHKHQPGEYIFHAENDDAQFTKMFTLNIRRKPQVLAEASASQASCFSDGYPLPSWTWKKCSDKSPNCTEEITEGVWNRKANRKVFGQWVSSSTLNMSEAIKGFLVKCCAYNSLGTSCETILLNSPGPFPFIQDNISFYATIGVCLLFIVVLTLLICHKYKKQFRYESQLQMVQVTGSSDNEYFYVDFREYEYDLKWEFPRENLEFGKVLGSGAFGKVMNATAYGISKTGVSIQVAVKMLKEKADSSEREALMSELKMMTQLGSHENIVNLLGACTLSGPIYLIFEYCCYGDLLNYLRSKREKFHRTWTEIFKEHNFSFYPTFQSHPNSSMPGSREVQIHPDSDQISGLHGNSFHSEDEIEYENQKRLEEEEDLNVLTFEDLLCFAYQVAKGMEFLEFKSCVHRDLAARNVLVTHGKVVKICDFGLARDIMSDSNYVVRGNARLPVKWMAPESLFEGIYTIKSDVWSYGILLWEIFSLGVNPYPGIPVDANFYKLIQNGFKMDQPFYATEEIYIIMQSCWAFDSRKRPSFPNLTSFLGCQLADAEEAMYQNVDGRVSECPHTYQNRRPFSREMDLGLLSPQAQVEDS
Experimental: (§4) Buffer solution ([…], pH 7.0, 0.2 mm EDTA, 10 mM mncl2), kinase to be tested, substrate of kinase to be tested, 10 mM magnesium acetate and γ33P-ATP solution, and compounds with different concentrations were added to a reaction tube in turn, then MgATP was added to initiate the enzyme reaction process, and incubated at room temperature for 40 min. Then, the reaction was terminated with 5 μl of […], and 10 μl of the reaction solution was titrated onto the Filtermat A membrane, washed with 75 mM phosphate solution for three times, each time for 5 min., and then washed with methanol once. Finally, the Filtermat A membrane was dried and the scintillation count was carried out.

JAK2 = target: T2, JAK2 (Homo sapiens, UniProt O60674); assay: In vitro kinase activity experiment, JAK2; type: biochemical; settings: inhibition rate of enzyme at 500 nM; measured by Eurofins
T2 construct: purchased Eurofins
T2 sequence (O60674 whole entry): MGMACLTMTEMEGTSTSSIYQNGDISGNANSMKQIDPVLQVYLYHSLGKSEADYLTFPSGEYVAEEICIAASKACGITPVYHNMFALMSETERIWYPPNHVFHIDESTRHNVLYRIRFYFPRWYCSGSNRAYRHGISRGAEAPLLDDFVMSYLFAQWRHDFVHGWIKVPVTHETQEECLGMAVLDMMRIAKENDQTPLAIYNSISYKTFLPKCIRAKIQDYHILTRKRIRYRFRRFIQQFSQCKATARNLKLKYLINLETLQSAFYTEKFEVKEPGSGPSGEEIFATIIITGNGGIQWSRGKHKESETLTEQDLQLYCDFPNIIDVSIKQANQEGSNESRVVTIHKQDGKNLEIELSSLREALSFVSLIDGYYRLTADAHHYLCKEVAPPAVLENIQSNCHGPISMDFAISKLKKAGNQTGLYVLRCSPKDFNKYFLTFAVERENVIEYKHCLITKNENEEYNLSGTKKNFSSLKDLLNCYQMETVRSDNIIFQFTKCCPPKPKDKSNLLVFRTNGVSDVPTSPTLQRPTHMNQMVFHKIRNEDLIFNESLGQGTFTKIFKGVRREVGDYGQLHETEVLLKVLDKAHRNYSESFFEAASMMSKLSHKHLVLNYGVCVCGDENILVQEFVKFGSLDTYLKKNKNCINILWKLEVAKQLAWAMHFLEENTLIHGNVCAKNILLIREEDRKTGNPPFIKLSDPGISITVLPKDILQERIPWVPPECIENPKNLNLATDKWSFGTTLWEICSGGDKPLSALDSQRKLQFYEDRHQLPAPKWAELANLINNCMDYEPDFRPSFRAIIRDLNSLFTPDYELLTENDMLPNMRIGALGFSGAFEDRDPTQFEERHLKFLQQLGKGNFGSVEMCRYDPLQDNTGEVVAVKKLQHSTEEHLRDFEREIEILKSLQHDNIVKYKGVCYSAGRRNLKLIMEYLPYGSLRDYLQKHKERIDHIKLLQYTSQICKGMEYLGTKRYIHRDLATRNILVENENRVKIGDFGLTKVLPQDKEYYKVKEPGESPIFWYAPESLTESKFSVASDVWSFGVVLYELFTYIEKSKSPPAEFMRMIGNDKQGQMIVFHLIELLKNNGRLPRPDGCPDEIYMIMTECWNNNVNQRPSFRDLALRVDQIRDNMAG
Experimental: as §4

SET-2 cells (JAK2 V617F) = assay: Inhibition of cell proliferation by MTT experiment, SET-2; type: cell-based; settings: Homo sapiens, SET-2; MTT, 72 h; read-out: IC50 value on cell proliferation inhibition, SET-2 (V617F)
Description: as §1, §2, §3

[2] = test system: MV4-11 cells (FLT3-ITD+/+); assay: Inhibition of cell proliferation by MTT experiment, MV4-11; type: cell-based, human; settings: Homo sapiens, MV4-11; MTT, 72 h; read-out: IC50 value on cell proliferation inhibition, MV4-11 FLT3-ITD+/+
Description: as §1, §2, §3

SMILES	IC50 [1]	inhibition at 0.5 µM (FLT3)	Kinase activity @ 500 nM (%) JAK2 (JAK2)	IC50 [2]	IC50 (SET-2 cells (JAK2 V617F))
CC(C)n1cc(-c2nc(Nc3cccc(N4CCN(C)CC4)c3)ncc2F)cn1 [CLJ-19, 5-fluoro-N-(3-(4-methylpiperazine-1-yl)phenyl)-4-(1-isopropyl-1H-pyrazol-4-yl) pyrimidine-2-amine]	0.1 to 1 µM	95%	92%	0.01 to 0.1 µM	0.1 to 1 µM
CCCCN1CCN(c2ccc(Nc3ncc(F)c(-c4cnn(C(C)C)c4)n3)nc2)CC1 [CLJ-20, 5-fluoro-N-(5-(4-butylpiperazine-1-yl)pyridine-2-yl)-4-(1-isopropyl-1H-pyrazole-4-yl) pyrimidine-2-amine]	0.1 to 1 µM	95%	97%	0.1 to 1 µM	0.1 to 1 µM
CCN1CCN(Cc2ccc(Nc3ncc(F)c(-c4cnn(C(C)C)c4)n3)nc2)CC1 [CLJ-21, 5-fluoro-N-(5-((4-ethylpiperazine-1-yl)methyl)pyridine-2-yl)-4-(1-isopropyl-1H-pyrazole-4-yl) pyrimidine-2-amine]	0.1 to 1 µM	75%	89%	0.1 to 1 µM	0.1 to 1 µM
CC(C)n1cc(-c2nc(Nc3ccc(N4CCN(C)CC4)cc3)ncc2F)cn1 [CLJ-22, 5-fluoro-N-(4-(4-methylpiperazine-1-yl)phenyl)-4-(1-isopropyl-1H-pyrazol-4-yl) pyrimidine-2-amine]	0.1 to 1 µM	80%	79%	0.1 to 1 µM	0.1 to 1 µM
CC(C)n1cc(-c2nc(Nc3ccc(N4CCN(C)CC4)cc3F)ncc2F)cn1 [CLJ-23, 5-fluoro-N-(2-fluoro-4-(4-methylpiperazine-1-yl)phenyl)-4-(1-isopropyl-1H-pyrazol-4-yl) pyrimidine-2-amine]	> 1 µM	40%	49%	0.1 to 1 µM	0.1 to 1 µM

Second part, led by results:

IC50 [1]	inhibition at 0.5 µM (FLT3)	Kinase activity @ 500 nM (%) JAK2 (JAK2)	IC50 [2]	SMILES	IC50 (SET-2 cells (JAK2 V617F))
> 1 µM	32%	28%	0.1 to 1 µM	CC(C)n1cc(-c2nc(Nc3ccc(N4CCN(C)CC4)c(F)c3)ncc2F)cn1 [CLJ-24, 5-fluoro-N-(3-fluoro-4-(4-methylpiperazine-1-yl)phenyl)-4-(1-isopropyl-1H-pyrazol-4-yl) pyrimidine-2-amine]	> 1 µM
> 1 µM	30%	19%	> 1 µM	CCN1CCN(c2ccc(Nc3ncc(F)c(-c4cnn(C(C)C)c4)n3)cc2F)CC1 [CLJ-26, 5-fluoro-N-(3-fluoro-4-(4-ethylpiperazine-1-yl)phenyl)-4-(1-isopropyl-1H-pyrazole-4-yl) pyrimidine-2-amine]	> 1 µM
> 1 µM	24%	34%	0.1 to 1 µM	CC(C)n1cc(-c2nc(Nc3ccc(N4CCCC4)c(F)c3)ncc2F)cn1 [CLJ-27, 5-fluoro-N-(3-fluoro-4-(pyrrolidine-1-yl)phenyl)-4-(1-isopropylpyrazol-4-yl) pyrimidine-2-amine]	> 1 µM
> 1 µM	21%	25%	> 1 µM	COc1cc(Nc2ncc(F)c(-c3cnn(C(C)C)c3)n2)ccc1N1CCN(C)CC1 [CLJ-28, 5-fluoro-N-(3-methoxy-4-(4-methylpiperazine-1-yl)phenyl)-4-(1-isopropyl-1H-pyrazol-4-yl) pyrimidine-2-amine]	> 1 µM
0.1 to 1 µM	96%	89%	0.01 to 0.1 µM	CCN1CCN(c2ccc(Nc3ncc(C)c(-c4cnn(C(C)C)c4)n3)cc2F)CC1 [CLJ-30]	0.1 to 1 µM
